# Results as given in ChEMBL document CHEMBL3885861, “Open TG-GATES”.
# Species on record: Rattus norvegicus
# Assay: Open TG-GATES - Regimen: Single
# Format: toxicity, organism-based, Sprague-Dawley
# Design: regimen Single, gender Male, age 6 weeks
# Settings: in vivo, ip, route intraperitoneal injection; for APTT / Bas / Eos / Fbg / Hb / Lym / MCH / MCHC / Mono / Neu / PT / Plat / RBC / Ret / WBC / Ht / MCV: tissue Blood; for KIDNEY_L / KIDNEY_R / KIDNEY_TOTAL: tissue Kidney; for LIVER: tissue Liver; for ALP / ALT / AST / BUN / CRE / Ca / DBIL / GLC / IP / K / LDH / PL / RALB / TBIL / TC / TG / TP / gamma-GTP / Na: tissue Plasma
# [1] = 0.3 mg/kg, 3 h, dose 300 ug/Kg, dose level Middle
# [2] = 0.3 mg/kg, 6 h, dose 300 ug/Kg, dose level Middle
# [3] = 0.3 mg/kg, 9 h, dose 300 ug/Kg, dose level Middle
# [4] = 0.3 mg/kg, 24 h, dose 300 ug/Kg, dose level Middle
# [5] = 3 mg/kg, 3 h, dose 3000 ug/Kg, dose level High
# [6] = 3 mg/kg, 6 h, dose 3000 ug/Kg, dose level High
# [7] = 3 mg/kg, 9 h, dose 3000 ug/Kg, dose level High
# [8] = 3 mg/kg, 24 h, dose 3000 ug/Kg, dose level High
substance,measurement,setting,value
LPS,APTT,[1],22.5 s
same,Bas,[1],0%
same,Eos,[1],0.3%
same,Fbg,[1],152.7 mg/dL
same,Hb,[1],13.6 g/dL
same,Lym,[1],75%
same,MCH,[1],21.8 pg
same,MCHC,[1],32.9%
same,Mono,[1],0.7%
same,Neu,[1],24%
same,PT,[1],17.9 s
same,Plat,[1],65.5 x10_4/uL
same,RBC,[1],625.3 x10_4/ul
same,Ret,[1],9.1%
same,WBC,[1],24.9 x10_2/uL
same,KIDNEY_L,[1],1 g
same,KIDNEY_R,[1],1 g
same,KIDNEY_TOTAL,[1],2 g
same,LIVER,[1],8.6 g
same,ALP,[1],1337.3 IU/L
same,ALT,[1],67.3 IU/L
same,AST,[1],171 IU/L
same,BUN,[1],12.7 mg/dL
same,CRE,[1],0.2 mg/dL
same,Ca,[1],9.7 mg/dL
same,DBIL,[1],0.0533 mg/dL
same,GLC,[1],138.7 mg/dL
same,IP,[1],9.3 mg/dL
same,K,[1],3.9 meq/L
same,LDH,[1],487.3 IU/L
same,PL,[1],134 mg/dL
same,RALB,[1],2.2 g/dL
same,TBIL,[1],0.2 mg/dL
same,TC,[1],68.3 mg/dL
same,TG,[1],96 mg/dL
same,TP,[1],5 g/dL
same,gamma-GTP,[1],1 IU/L
same,TERMINAL_BW,[2],193.4 g
same,APTT,[2],28.2 s
same,Bas,[2],0%
same,Eos,[2],1%
same,Fbg,[2],185.7 mg/dL
same,Hb,[2],13.6 g/dL
same,Ht,[2],40.7%
same,Lym,[2],56%
same,MCHC,[2],33.3%
same,MCV,[2],64.7 fL
same,Mono,[2],1%
same,Neu,[2],41.3%
same,PT,[2],17.8 s
same,Plat,[2],56 x10_4/uL
same,RBC,[2],629.3 x10_4/ul
same,Ret,[2],9.3%
same,WBC,[2],34.8 x10_2/uL
same,KIDNEY_L,[2],0.9 g
same,KIDNEY_R,[2],0.9 g
same,KIDNEY_TOTAL,[2],1.9 g
same,LIVER,[2],8 g
same,ALP,[2],1219 IU/L
same,ALT,[2],143.7 IU/L
same,AST,[2],272 IU/L
same,BUN,[2],18.3 mg/dL
same,CRE,[2],0.2 mg/dL
same,Ca,[2],9.7 mg/dL
same,DBIL,[2],0.1 mg/dL
same,GLC,[2],140 mg/dL
same,IP,[2],9.9 mg/dL
same,K,[2],4 meq/L
same,LDH,[2],1262.7 IU/L
same,Na,[2],139.7 meq/L
same,PL,[2],163.3 mg/dL
same,RALB,[2],2.2 g/dL
same,TBIL,[2],0.4 mg/dL
same,TC,[2],103.7 mg/dL
same,TG,[2],65.3 mg/dL
same,TP,[2],5 g/dL
same,gamma-GTP,[2],2.3 IU/L
same,TERMINAL_BW,[3],188.8 g
same,APTT,[3],22.1 s
same,Bas,[3],0%
same,Eos,[3],1%
same,Fbg,[3],248.7 mg/dL
same,Hb,[3],13.8 g/dL
same,Lym,[3],51.3%
same,MCV,[3],64.7 fL
same,Mono,[3],1%
same,Neu,[3],46.7%
same,Plat,[3],59.9 x10_4/uL
same,RBC,[3],643.7 x10_4/ul
same,Ret,[3],8.7%
same,WBC,[3],71 x10_2/uL
same,KIDNEY_L,[3],0.9 g
same,KIDNEY_R,[3],0.9 g
same,KIDNEY_TOTAL,[3],1.9 g
same,LIVER,[3],7.2 g
same,ALP,[3],1291 IU/L
same,ALT,[3],126.3 IU/L
same,AST,[3],246.7 IU/L
same,BUN,[3],16.3 mg/dL
same,CRE,[3],0.2 mg/dL
same,Ca,[3],10 mg/dL
same,DBIL,[3],0.0533 mg/dL
same,GLC,[3],139.3 mg/dL
same,IP,[3],9.6 mg/dL
same,K,[3],4.1 meq/L
same,LDH,[3],1570.3 IU/L
same,Na,[3],140.3 meq/L
same,PL,[3],166.3 mg/dL
same,RALB,[3],2.4 g/dL
same,TBIL,[3],0.2 mg/dL
same,TC,[3],119 mg/dL
same,TG,[3],38 mg/dL
same,TP,[3],5.4 g/dL
same,gamma-GTP,[3],4.3 IU/L
same,TERMINAL_BW,[4],189.4 g
same,APTT,[4],19.4 s
same,Bas,[4],0%
same,Eos,[4],1%
same,Fbg,[4],519 mg/dL
same,Hb,[4],13.6 g/dL
same,Lym,[4],61.7%
same,MCH,[4],20.6 pg
same,MCHC,[4],32.9%
same,Mono,[4],2.7%
same,Neu,[4],33.3%
same,PT,[4],14.6 s
same,Plat,[4],53.7 x10_4/uL
same,RBC,[4],660.3 x10_4/ul
same,Ret,[4],6.6%
same,WBC,[4],82.4 x10_2/uL
same,KIDNEY_L,[4],0.9 g
same,KIDNEY_R,[4],0.9 g
same,KIDNEY_TOTAL,[4],1.8 g
same,LIVER,[4],9.2 g
same,ALP,[4],1258 IU/L
same,ALT,[4],36.7 IU/L
same,AST,[4],71 IU/L
same,BUN,[4],18.3 mg/dL
same,CRE,[4],0.2 mg/dL
same,DBIL,[4],0.01 mg/dL
same,GLC,[4],181.3 mg/dL
same,IP,[4],9.2 mg/dL
same,K,[4],4.7 meq/L
same,LDH,[4],64 IU/L
same,PL,[4],176 mg/dL
same,RALB,[4],2.7 g/dL
same,TBIL,[4],0.07 mg/dL
same,TC,[4],107 mg/dL
same,TG,[4],47.7 mg/dL
same,TP,[4],5.9 g/dL
same,gamma-GTP,[4],1.7 IU/L
same,TERMINAL_BW,[5],197.5 g
same,Bas,[5],0.3%
same,Eos,[5],0%
same,Fbg,[5],186.3 mg/dL
same,Ht,[5],40.6%
same,Lym,[5],62.3%
same,MCV,[5],66.6 fL
same,Mono,[5],2%
same,Neu,[5],34.7%
same,PT,[5],17.1 s
same,Plat,[5],83.4 x10_4/uL
same,RBC,[5],608.7 x10_4/ul
same,Ret,[5],9.7%
same,WBC,[5],42.6 x10_2/uL
same,KIDNEY_L,[5],0.9 g
same,KIDNEY_R,[5],0.9 g
same,KIDNEY_TOTAL,[5],1.9 g
same,LIVER,[5],9.2 g
same,ALP,[5],1326.7 IU/L
same,ALT,[5],48 IU/L
same,AST,[5],122.3 IU/L
same,BUN,[5],15 mg/dL
same,CRE,[5],0.2 mg/dL
same,Ca,[5],10 mg/dL
same,DBIL,[5],0.0233 mg/dL
same,GLC,[5],148.7 mg/dL
same,K,[5],4.1 meq/L
same,LDH,[5],229.3 IU/L
same,RALB,[5],2.2 g/dL
same,TBIL,[5],0.0667 mg/dL
same,TC,[5],78.3 mg/dL
same,TG,[5],143 mg/dL
same,TP,[5],4.8 g/dL
same,gamma-GTP,[5],1.7 IU/L
same,TERMINAL_BW,[6],192.5 g
same,APTT,[6],25.9 s
same,Bas,[6],0%
same,Eos,[6],1%
same,Fbg,[6],158.3 mg/dL
same,Lym,[6],65.3%
same,MCHC,[6],32.8%
same,MCV,[6],64.5 fL
same,Mono,[6],1%
same,Neu,[6],31.7%
same,PT,[6],18.2 s
same,Plat,[6],47.4 x10_4/uL
same,RBC,[6],627.3 x10_4/ul
same,Ret,[6],8.9%
same,WBC,[6],21.1 x10_2/uL
same,KIDNEY_L,[6],1 g
same,KIDNEY_R,[6],0.9 g
same,KIDNEY_TOTAL,[6],1.9 g
same,LIVER,[6],7.6 g
same,ALP,[6],1321.7 IU/L
same,ALT,[6],378.7 IU/L
same,AST,[6],499.3 IU/L
same,BUN,[6],23.3 mg/dL
same,CRE,[6],0.2 mg/dL
same,Ca,[6],9.5 mg/dL
same,DBIL,[6],0.2 mg/dL
same,GLC,[6],124.3 mg/dL
same,IP,[6],10.4 mg/dL
same,K,[6],4.4 meq/L
same,LDH,[6],2239.3 IU/L
same,Na,[6],140.3 meq/L
same,PL,[6],156.7 mg/dL
same,RALB,[6],2.2 g/dL
same,TBIL,[6],0.3 mg/dL
same,TC,[6],90 mg/dL
same,TG,[6],87 mg/dL
same,TP,[6],4.9 g/dL
same,gamma-GTP,[6],2.7 IU/L
same,TERMINAL_BW,[7],188.4 g
same,APTT,[7],25 s
same,Bas,[7],0%
same,Eos,[7],1%
same,Fbg,[7],180.7 mg/dL
same,Ht,[7],41.4%
same,Lym,[7],56%
same,MCHC,[7],32.7%
same,MCV,[7],64.7 fL
same,Mono,[7],1%
same,Neu,[7],42%
same,PT,[7],17.9 s
same,Plat,[7],27.3 x10_4/uL
same,RBC,[7],641 x10_4/ul
same,Ret,[7],8.6%
same,WBC,[7],48.1 x10_2/uL
same,KIDNEY_L,[7],0.9 g
same,KIDNEY_R,[7],0.9 g
same,KIDNEY_TOTAL,[7],1.9 g
same,LIVER,[7],7.4 g
same,ALP,[7],1439.3 IU/L
same,ALT,[7],320.3 IU/L
same,AST,[7],534.3 IU/L
same,BUN,[7],29.7 mg/dL
same,CRE,[7],0.2 mg/dL
same,Ca,[7],9.5 mg/dL
same,DBIL,[7],0.2 mg/dL
same,GLC,[7],116 mg/dL
same,K,[7],4.6 meq/L
same,LDH,[7],1843.3 IU/L
same,Na,[7],138.3 meq/L
same,PL,[7],169.7 mg/dL
same,RALB,[7],2.1 g/dL
same,TBIL,[7],0.4 mg/dL
same,TC,[7],115.7 mg/dL
same,TG,[7],117.7 mg/dL
same,TP,[7],4.8 g/dL
same,gamma-GTP,[7],4 IU/L
same,TERMINAL_BW,[8],191.8 g
same,APTT,[8],23.8 s
same,Bas,[8],0.7%
same,Eos,[8],1%
same,Fbg,[8],336 mg/dL
same,Hb,[8],12.1 g/dL
same,Ht,[8],37.4%
same,Lym,[8],55.3%
same,MCHC,[8],32.4%
same,MCV,[8],64 fL
same,Mono,[8],2%
same,Neu,[8],40.7%
same,PT,[8],15.3 s
same,Plat,[8],41.9 x10_4/uL
same,RBC,[8],583.3 x10_4/ul
same,Ret,[8],7.7%
same,WBC,[8],99.6 x10_2/uL
same,KIDNEY_L,[8],0.9 g
same,KIDNEY_R,[8],1 g
same,KIDNEY_TOTAL,[8],1.9 g
same,LIVER,[8],8.3 g
same,ALP,[8],1299 IU/L
same,ALT,[8],330.3 IU/L
same,AST,[8],740.3 IU/L
same,BUN,[8],31.7 mg/dL
same,CRE,[8],0.2 mg/dL
same,DBIL,[8],0.06 mg/dL
same,GLC,[8],139 mg/dL
same,IP,[8],9.4 mg/dL
same,K,[8],4.4 meq/L
same,LDH,[8],271.7 IU/L
same,RALB,[8],2.2 g/dL
same,TBIL,[8],0.2 mg/dL
same,TC,[8],93.3 mg/dL
same,TG,[8],45.3 mg/dL
same,TP,[8],4.9 g/dL
same,gamma-GTP,[8],6.7 IU/L
